Values quoted from earlier work as cited in patent US7776886B2, “Cyclopropyl piperidine glycine transporter inhibitors” (Merck Sharp & Dohme Corp., priority 2004, dated 2010).

How the values were obtained:
[1] = tested on: NMDA receptor; conditions: rat
[2] = mice
[3] = schizophrenia patients poorly responsive to antipsychotic drugs

Compound: CN(CCC(Oc1ccc(-c2ccccc2)cc1)c1ccc(F)cc1)CC(=O)O (stereo not shown) [NFPS, (N-[3-(4′-fluorophenyl)-3-(4′-phenylphenoxy)propyl])sarcosine]
- NMDA receptor activity [1]: potentiates
- NMDA receptor-dependent long-term potentiation [1]: potentiates
- pre-pulse inhibition (measure of sensory gating) [2]: enhance pre-pulse inhibition

Compound: CNCC(=O)O [sarcosine]
- effect on positive, negative and cognitive symptoms [3]: beneficial effect
